Results as given in publication PMC12029836, “Phytotoxicity, Cytotoxicity, and Antimicrobial Activity of Triethanolammonium Amino Acids Salts” (Molecules, 2025).
Values joined by “and” are separate entries in the source; they are usually repeats but may differ in a detail not shown here. Equal values may be shown once. Read-outs that look alike come from different tables or passages of the source.

Columns and labels:
[1] = test system: Lepidium sativum L. seeds; conditions: 24 h incubation, mean(±SD), n = 3
L929 fibroblasts = experiment: Mammalian cell cytotoxicity screening, resazurin viability; assay type: cell-based, mouse
S. aureus ATCC 6538 = experiment: Antimicrobial activity, broth microdilution MIC/MBC; assay type: cell-based, Staphylococcus aureus; conditions: S. aureus ATCC 6538, 24 h at 37 °C, at least 90% growth inhibition; nd—not detected
[2] = test system: Lepidium sativum L. roots; conditions: 24 h incubation, mean(±SD), n = 3
E. coli ATCC 8739 = experiment: Antimicrobial activity, broth microdilution MIC/MBC; assay type: cell-based, Escherichia coli; conditions: nd—not detected; for MIC (%): E. coli ATCC 8739, 24 h at 37 °C, at least 90% growth inhibition; for MBC (%): E. coli ATCC 8739
C. albicans ATCC 10231 = experiment: as above; assay type: cell-based, Candida albicans; conditions: nd—not detected; for MIC (%): C. albicans ATCC 10231, 24 h at 37 °C, at least 90% growth inhibition
[3] = 0.01% (w/w) compound in the medium
[4] = 0.03% (w/w) compound in the medium
[5] = 0.05% (w/w) compound in the medium
[6] = 0.10% (w/w) compound in the medium
[7] = 0.30% (w/w) compound in the medium
[8] = 0.50% (w/w) compound in the medium
[9] = 1.00% (w/w) compound in the medium
[10] = 2.00% (w/w) compound in the medium
[11] = 3.00% (w/w) compound in the medium
[12] = 4.00% (w/w) compound in the medium
[13] = 5.00% (w/w) compound in the medium

Row | Compound | Inhibition of the Lepidium sativum seeds germination (ISG, %) [1, 3] | Inhibition of the Lepidium sativum seeds germination (ISG, %) [1, 4] | Inhibition of the Lepidium sativum seeds germination (ISG, %) [1, 5] | Inhibition of the Lepidium sativum seeds germination (ISG, %) [1, 6] | Inhibition of the Lepidium sativum seeds germination (ISG, %) [1, 7] | Inhibition of the Lepidium sativum seeds germination (ISG, %) [1, 8] | Inhibition of the Lepidium sativum seeds germination (ISG, %) [1, 9] | Inhibition of the Lepidium sativum seeds germination (ISG, %) [1, 10] | Inhibition of the Lepidium sativum seeds germination (ISG, %) [1, 11] | Inhibition of the Lepidium sativum seeds germination (ISG, %) [1, 12] | MIC (%) (S. aureus ATCC 6538) | Inhibition of the root growth in pregerminated Lepidium sativum seeds (IRG, %) [2, 3] | Inhibition of the root growth in pregerminated Lepidium sativum seeds (IRG, %) [2, 4] | Inhibition of the root growth in pregerminated Lepidium sativum seeds (IRG, %) [2, 5] | Inhibition of the root growth in pregerminated Lepidium sativum seeds (IRG, %) [2, 6] | Inhibition of the root growth in pregerminated Lepidium sativum seeds (IRG, %) [2, 7] | Inhibition of the root growth in pregerminated Lepidium sativum seeds (IRG, %) [2, 8] | Inhibition of the root growth in pregerminated Lepidium sativum seeds (IRG, %) [2, 10] | Inhibition of the root growth in pregerminated Lepidium sativum seeds (IRG, %) [2, 11] | Inhibition of the root growth in pregerminated Lepidium sativum seeds (IRG, %) [2, 12] | further results
1 | N[C@@H](CC(=O)O)C(=O)O.OCCN(CCO)CCO [[TEA][Asp]] | 0.0(±0.0) % | 0.0(±0.0) % | 0.0(±0.0) % | 0.0(±0.0) % | 0.0(±0.0) % | 0.0(±0.0) % | 0.0(±0.0) % | 0.0(±0.0) % | 3.5% | 16.2(±1.3) % | 15 | 0.0(±0.0) % and 0% | 0.0(±0.0) % and 0% | 0.0(±0.0) % and 0% | 0.0(±0.0) % and 0% | 9.1% | 12.9% | 43.9(±1.3) % | 44.2(±1.0) % | 56.3(±1.0) % | ED20 (L929 fibroblasts; 24h exposure): 0.47±0.03%; ED50 (L929 fibroblasts; 24h exposure): 0.66±0.03%; ED80 (L929 fibroblasts; 24h exposure): 0.86±0.09%; ED20 (L929 fibroblasts; 48h exposure): 0.30±0.02%; ED50 (L929 fibroblasts; 48h exposure): 0.50±0.01%; ED80 (L929 fibroblasts; 48h exposure): 0.71±0.01%; Inhibition of the root growth in pregerminated Lepidium sativum seeds (IRG, %) [2, 13]: 68.3%; MIC (%) (E. coli ATCC 8739): 7.50%; MBC (%) (E. coli ATCC 8739): 15%; MIC (%) (C. albicans ATCC 10231): 15%; MBC (%) (C. albicans ATCC 10231; C. albicans ATCC 10231): 15%
2 | CC(N)C(=O)O.OCCN(CCO)CCO [[TEA][Ala]] | 0.0(±1.2) % | 0.0(±0.8) % | 0.0(±1.2) % | 0.0(±0.8) % | 0.0(±0.5) % | 9.4(±1.4) % | 11.8(±1.6) % | 17.7(±0.8) % | 64.7(±0.8) % | 88.3(±1.3) % | 7.50 | 0.0(±0.0) % | 0.0(±0.0) % | 14.8(±1.5) % | 19.7(±1.4) % | 27.9(±1.2) % | 36.1(±1.2) % | 67.2(±1.0) % | 77.6(±0.6) % | 79.3(±0.6) % | Inhibition of the Lepidium sativum seeds germination (ISG, %) [1, 13]: 100.0(±0.5) %; ED20 (L929 fibroblasts; 24h exposure): 0.54±0.06%; ED50 (L929 fibroblasts; 24h exposure): 0.57±0.04%; ED80 (L929 fibroblasts; 24h exposure): 0.59±0.11%; ED20 (L929 fibroblasts; 48h exposure): 0.25±0.03%; ED50 (L929 fibroblasts; 48h exposure): 0.42±0.02%; ED80 (L929 fibroblasts; 48h exposure): 0.63±0.03%; Inhibition of the root growth in pregerminated Lepidium sativum seeds (IRG, %) [2, 9]: 55.2(±0.8) %; Inhibition of the root growth in pregerminated Lepidium sativum seeds (IRG, %) [2, 13]: 89.7(±0.5) %; MIC (%) (E. coli ATCC 8739): 3.75%; MBC (%) (E. coli ATCC 8739): 7.50%; MIC (%) (C. albicans ATCC 10231): 1.88%
3 | NC(CCC(=O)O)C(=O)O.OCCN(CCO)CCO (centres unmarked) [[TEA][Glu]] | 0.0(±0.0) % | 0.0(±0.0) % | 1.8(±0.5) % | 3.6(±0.8) % | 5.4(±1.3) % | 8.9(±0.8) % | 10.7(±1.3) % | 10.7(±1.3) % | 14.3% | 21.4(±0.5) % | 15 | 0.0(±0.0) % and 0% | 0.0(±0.0) % and 0% | 4.0(±2.4) % | 4.9(±2.7) % | 5.8% | 21% | 44.5(±1.8) % | 61.4(±1.0) % | 79.4(±0.8) % | Inhibition of the Lepidium sativum seeds germination (ISG, %) [1, 13]: 33.9%; Inhibition of the root growth in pregerminated Lepidium sativum seeds (IRG, %) [2, 9]: 36.3(±2.2) %; Inhibition of the root growth in pregerminated Lepidium sativum seeds (IRG, %) [2, 13]: 82.4(±0.5) %; MIC (%) (E. coli ATCC 8739): 7.50%; MBC (%) (E. coli ATCC 8739): 15%; MIC (%) (C. albicans ATCC 10231): 15%
